Results taken from the kinase profiling compilation of Christmann-Franck et al. (2016).

Columns and labels:
Test in all cases: radiometric filter-binding kinase assay
[1] = biological target: NEK6 (human) (UniProt Q9HC98)
[2] = biological target: MAPK1 (human) (UniProt P28482)
[3] = biological target: BTK (human) (UniProt Q06187)
[4] = biological target: RPS6KA5 KD1 KD2 (human) (UniProt O75582)
[5] = biological target: IKBKB (human) (UniProt O14920)
[6] = biological target: TTK (human) (UniProt P33981)
[7] = biological target: MAP2K1 (human) (UniProt Q02750)
[8] = biological target: EPHA4 (human) (UniProt P54764)
[9] = biological target: INSRR (human) (UniProt P14616)
[10] = biological target: CHEK2 (human) (UniProt O96017)
[11] = biological target: CSK (human) (UniProt P41240)
[12] = biological target: MAPK15 (human) (UniProt Q8TD08)
[13] = biological target: MAPKAPK3 (human) (UniProt Q16644)
[14] = tested on: RPS6KB1 (human), P23443 [T412E]
[15] = biological target: RPS6KA3 KD1 KD2 (human) (UniProt P51812)
[16] = biological target: CSNK1D (human) (UniProt P48730)
[17] = biological target: IKBKE (human) (UniProt Q14164)
[18] = biological target: CDK2 CCNA2 (human) (UniProt P20248+P24941)
[19] = biological target: PAK7 (human) (UniProt Q9P286)
[20] = biological target: RIPK2 (human) (UniProt O43353)
[21] = biological target: NEK2 (human) (UniProt P51955)
[22] = biological target: PRKACA (human) (UniProt P17612)
[23] = biological target: RPS6KA1 KD1 KD2 (human) (UniProt Q15418)
[24] = biological target: MKNK2 (human) (UniProt Q9HBH9)
[25] = biological target: MAPK14 (human) (UniProt Q16539)
[26] = biological target: FLT1 (human) (UniProt P17948)
[27] = biological target: PLK1 (human) (UniProt P53350)
[28] = biological target: MAPK3 (human) (UniProt P27361)
[29] = biological target: SRC (human) (UniProt P12931)
[30] = biological target: SYK (human) (UniProt P43405)
[31] = biological target: PIM2 (human) (UniProt Q9P1W9)
[32] = biological target: EPHB4 (human) (UniProt P54760)
[33] = tested on: AKT2 (human), P31751 [S474D]
[34] = biological target: EPHB1 (human) (UniProt P54762)
[35] = tested on: PRKAA1 or PRKAA2 (rat); settings: accession and sequence are those of the human protein

Chain of PAK7 (human) (Q9P286 whole entry, looked up): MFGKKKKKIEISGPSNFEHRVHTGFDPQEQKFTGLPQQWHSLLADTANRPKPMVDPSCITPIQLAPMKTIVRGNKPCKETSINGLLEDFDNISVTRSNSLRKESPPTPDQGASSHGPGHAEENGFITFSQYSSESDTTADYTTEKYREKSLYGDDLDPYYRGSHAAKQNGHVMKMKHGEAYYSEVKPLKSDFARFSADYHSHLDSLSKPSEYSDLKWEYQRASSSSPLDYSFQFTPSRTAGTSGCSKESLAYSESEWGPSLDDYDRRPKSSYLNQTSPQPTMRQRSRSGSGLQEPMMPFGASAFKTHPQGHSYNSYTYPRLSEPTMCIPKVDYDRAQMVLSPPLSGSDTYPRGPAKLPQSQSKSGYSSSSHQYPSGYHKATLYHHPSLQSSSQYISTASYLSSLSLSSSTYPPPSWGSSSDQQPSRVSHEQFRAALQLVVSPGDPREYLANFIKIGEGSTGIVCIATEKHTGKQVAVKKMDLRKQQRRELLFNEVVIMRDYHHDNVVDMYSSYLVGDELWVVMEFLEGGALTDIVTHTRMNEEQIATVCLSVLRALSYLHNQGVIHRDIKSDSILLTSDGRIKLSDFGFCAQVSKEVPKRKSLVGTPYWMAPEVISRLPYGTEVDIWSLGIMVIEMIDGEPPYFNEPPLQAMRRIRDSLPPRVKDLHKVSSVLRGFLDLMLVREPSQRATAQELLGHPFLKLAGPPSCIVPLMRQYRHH
Chain of IKBKE (human) (Q14164 whole entry, looked up): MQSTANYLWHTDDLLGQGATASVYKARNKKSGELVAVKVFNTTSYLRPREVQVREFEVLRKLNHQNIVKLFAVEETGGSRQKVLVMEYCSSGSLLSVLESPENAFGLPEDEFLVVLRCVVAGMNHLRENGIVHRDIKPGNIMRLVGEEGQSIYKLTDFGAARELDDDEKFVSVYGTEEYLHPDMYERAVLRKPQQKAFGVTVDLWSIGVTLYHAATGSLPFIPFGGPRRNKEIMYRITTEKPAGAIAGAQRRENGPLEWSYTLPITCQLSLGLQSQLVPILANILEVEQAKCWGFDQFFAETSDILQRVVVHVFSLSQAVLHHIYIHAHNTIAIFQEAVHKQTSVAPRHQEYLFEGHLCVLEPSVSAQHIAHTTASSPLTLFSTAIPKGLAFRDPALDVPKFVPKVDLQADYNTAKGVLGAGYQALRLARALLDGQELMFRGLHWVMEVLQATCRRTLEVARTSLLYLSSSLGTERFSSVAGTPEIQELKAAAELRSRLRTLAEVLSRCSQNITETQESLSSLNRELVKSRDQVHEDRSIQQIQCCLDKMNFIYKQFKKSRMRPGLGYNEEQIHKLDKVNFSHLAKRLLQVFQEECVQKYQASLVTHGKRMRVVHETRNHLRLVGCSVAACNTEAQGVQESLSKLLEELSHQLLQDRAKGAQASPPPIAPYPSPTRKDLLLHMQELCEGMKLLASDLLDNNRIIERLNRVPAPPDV
Chain of TTK (human) (P33981 whole entry, looked up): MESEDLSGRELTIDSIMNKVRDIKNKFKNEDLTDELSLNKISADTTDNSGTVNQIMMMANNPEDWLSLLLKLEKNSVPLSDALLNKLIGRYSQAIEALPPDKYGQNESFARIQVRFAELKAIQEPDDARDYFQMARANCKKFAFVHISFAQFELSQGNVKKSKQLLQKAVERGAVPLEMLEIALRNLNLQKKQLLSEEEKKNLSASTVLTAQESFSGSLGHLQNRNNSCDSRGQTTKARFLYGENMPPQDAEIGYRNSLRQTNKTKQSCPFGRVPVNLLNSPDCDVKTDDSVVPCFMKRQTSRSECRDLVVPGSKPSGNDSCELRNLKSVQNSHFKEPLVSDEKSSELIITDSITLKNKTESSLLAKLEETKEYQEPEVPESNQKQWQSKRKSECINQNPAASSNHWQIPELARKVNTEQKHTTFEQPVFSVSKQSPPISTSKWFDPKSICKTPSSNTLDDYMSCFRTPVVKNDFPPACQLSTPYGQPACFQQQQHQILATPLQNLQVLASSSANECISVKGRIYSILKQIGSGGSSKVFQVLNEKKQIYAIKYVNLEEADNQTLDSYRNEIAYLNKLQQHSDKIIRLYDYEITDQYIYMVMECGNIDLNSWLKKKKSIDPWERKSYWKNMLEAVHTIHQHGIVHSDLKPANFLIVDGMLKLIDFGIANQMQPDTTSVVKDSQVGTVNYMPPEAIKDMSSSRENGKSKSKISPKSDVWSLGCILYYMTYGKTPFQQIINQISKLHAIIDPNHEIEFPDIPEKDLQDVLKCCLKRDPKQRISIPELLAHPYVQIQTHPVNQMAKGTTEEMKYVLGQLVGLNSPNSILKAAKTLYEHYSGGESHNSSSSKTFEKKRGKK
Chain of EPHB1 (human) (P54762 whole entry, looked up): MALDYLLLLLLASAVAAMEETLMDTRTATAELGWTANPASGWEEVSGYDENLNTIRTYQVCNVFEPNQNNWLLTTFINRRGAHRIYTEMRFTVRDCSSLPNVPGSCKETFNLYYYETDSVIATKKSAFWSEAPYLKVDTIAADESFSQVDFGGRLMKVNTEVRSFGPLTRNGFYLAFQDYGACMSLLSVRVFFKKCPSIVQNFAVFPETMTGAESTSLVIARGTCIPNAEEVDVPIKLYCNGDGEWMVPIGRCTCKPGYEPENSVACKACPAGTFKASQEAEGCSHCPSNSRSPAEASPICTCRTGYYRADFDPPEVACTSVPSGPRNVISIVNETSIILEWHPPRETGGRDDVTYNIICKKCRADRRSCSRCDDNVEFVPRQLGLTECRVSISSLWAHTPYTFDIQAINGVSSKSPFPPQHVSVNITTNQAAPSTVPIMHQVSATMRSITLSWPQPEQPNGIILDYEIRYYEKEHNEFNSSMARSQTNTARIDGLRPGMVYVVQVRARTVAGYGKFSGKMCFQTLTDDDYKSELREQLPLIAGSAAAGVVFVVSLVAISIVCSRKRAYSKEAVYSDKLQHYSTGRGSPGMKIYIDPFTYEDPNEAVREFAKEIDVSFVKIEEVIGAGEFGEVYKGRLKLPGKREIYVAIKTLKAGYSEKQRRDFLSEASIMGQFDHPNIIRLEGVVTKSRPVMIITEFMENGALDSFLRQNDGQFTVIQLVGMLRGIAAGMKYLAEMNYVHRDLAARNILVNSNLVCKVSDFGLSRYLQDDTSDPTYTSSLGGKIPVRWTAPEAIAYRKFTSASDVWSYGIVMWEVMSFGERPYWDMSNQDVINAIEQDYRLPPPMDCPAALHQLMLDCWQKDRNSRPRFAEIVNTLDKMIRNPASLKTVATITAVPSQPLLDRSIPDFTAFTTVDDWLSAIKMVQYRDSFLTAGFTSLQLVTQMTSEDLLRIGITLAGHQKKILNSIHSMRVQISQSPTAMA
Chain of RIPK2 (human) (O43353 whole entry, looked up): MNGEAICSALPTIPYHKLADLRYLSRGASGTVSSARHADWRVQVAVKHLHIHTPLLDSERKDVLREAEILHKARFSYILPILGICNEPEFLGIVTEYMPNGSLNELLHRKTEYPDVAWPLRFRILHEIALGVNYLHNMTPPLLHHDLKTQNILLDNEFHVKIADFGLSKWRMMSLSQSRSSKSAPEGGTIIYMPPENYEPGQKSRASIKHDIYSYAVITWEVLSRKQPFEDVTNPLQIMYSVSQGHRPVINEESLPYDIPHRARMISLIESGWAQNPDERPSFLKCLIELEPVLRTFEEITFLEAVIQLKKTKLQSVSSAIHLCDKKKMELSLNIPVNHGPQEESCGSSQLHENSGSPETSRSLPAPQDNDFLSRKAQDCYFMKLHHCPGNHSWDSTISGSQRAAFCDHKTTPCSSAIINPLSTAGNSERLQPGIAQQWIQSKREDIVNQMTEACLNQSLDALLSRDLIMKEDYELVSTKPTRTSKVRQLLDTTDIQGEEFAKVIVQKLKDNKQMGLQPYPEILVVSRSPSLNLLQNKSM
Chain of PIM2 (human) (Q9P1W9 whole entry, looked up): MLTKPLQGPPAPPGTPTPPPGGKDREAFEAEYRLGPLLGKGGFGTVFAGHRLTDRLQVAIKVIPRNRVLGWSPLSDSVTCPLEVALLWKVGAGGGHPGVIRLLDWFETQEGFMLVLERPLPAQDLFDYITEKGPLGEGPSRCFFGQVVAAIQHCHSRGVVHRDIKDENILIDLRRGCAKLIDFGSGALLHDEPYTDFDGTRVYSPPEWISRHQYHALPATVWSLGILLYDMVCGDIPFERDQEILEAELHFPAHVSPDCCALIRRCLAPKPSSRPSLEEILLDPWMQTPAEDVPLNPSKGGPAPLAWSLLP
Chain of NEK6 (human) (Q9HC98 whole entry, looked up): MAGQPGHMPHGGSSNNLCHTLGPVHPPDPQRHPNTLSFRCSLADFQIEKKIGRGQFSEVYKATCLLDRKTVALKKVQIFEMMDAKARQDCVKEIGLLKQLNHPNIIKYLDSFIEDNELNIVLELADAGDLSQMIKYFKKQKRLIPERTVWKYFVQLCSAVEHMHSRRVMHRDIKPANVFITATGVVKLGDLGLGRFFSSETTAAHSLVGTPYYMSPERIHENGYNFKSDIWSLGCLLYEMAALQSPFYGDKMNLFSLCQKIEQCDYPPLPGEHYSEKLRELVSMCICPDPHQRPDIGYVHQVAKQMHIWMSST
Chain of MKNK2 (human) (Q9HBH9 whole entry, looked up): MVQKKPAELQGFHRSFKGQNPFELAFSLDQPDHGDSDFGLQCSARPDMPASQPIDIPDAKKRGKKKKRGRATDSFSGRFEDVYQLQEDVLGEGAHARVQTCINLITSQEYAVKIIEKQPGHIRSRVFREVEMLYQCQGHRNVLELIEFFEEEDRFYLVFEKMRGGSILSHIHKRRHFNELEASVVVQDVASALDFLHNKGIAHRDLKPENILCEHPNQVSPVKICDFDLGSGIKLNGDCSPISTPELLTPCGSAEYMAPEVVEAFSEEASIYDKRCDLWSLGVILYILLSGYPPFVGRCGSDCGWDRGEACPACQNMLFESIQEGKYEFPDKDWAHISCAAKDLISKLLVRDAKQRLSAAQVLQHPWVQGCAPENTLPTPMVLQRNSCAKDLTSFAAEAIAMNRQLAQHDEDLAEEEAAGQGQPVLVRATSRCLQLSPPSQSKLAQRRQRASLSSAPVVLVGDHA

`NC1(c2ccc(-c3nc4ccn5c(=O)[nH]nc5c4cc3-c3ccccc3)cc2)CCC1` gave a residual activity ([1]; compound 0.1 µM) of 106%, a residual activity ([1]; compound 1.0 µM) of 98% and a residual activity ([1]; compound 10.0 µM) of 90%. It also gave a residual activity ([2]; compound 0.1 µM) of 104%, a residual activity ([2]; compound 1.0 µM) of 96% and a residual activity ([2]; compound 10.0 µM) of 75%. For the same compound, the residual activity ([3]; compound 0.1 µM) was 87%, the residual activity ([3]; compound 1.0 µM) was 96% and the residual activity ([3]; compound 10.0 µM) was 99%. For the same compound, the residual activity ([4]; compound 0.1 µM) was 84%, the residual activity ([4]; compound 1.0 µM) was 90% and the residual activity ([4]; compound 10.0 µM) was 76%. For the same compound, the residual activity ([5]; compound 0.1 µM) was 112%, the residual activity ([5]; compound 1.0 µM) was 98% and the residual activity ([5]; compound 10.0 µM) was 89%. The residual activity ([6]; compound 0.1 µM) was 106%, the residual activity ([6]; compound 1.0 µM) was 105% and the residual activity ([6]; compound 10.0 µM) was 80%. For the same compound, the residual activity ([7]; compound 0.1 µM) was 83%, the residual activity ([7]; compound 1.0 µM) was 72% and the residual activity ([7]; compound 10.0 µM) was 90%. The residual activity ([8]; compound 0.1 µM) was 107%, the residual activity ([8]; compound 1.0 µM) was 116% and the residual activity ([8]; compound 10.0 µM) was 97%. It also gave a residual activity ([9]; compound 0.1 µM) of 95%, a residual activity ([9]; compound 1.0 µM) of 80% and a residual activity ([9]; compound 10.0 µM) of 61%. The residual activity ([10]; compound 0.1 µM) was 122%, the residual activity ([10]; compound 1.0 µM) was 81% and the residual activity ([10]; compound 10.0 µM) was 39%. It also gave a residual activity ([11]; compound 0.1 µM) of 92%, a residual activity ([11]; compound 1.0 µM) of 91% and a residual activity ([11]; compound 10.0 µM) of 85%. It also gave a residual activity ([12]; compound 0.1 µM) of 106%, a residual activity ([12]; compound 1.0 µM) of 89% and a residual activity ([12]; compound 10.0 µM) of 93%. The residual activity ([13]; compound 0.1 µM) was 88%, the residual activity ([13]; compound 1.0 µM) was 107% and the residual activity ([13]; compound 10.0 µM) was 94%. For the same compound, the residual activity ([14]; compound 0.1 µM) was 84%, the residual activity ([14]; compound 1.0 µM) was 84% and the residual activity ([14]; compound 10.0 µM) was 84%. It also gave a residual activity ([15]; compound 0.1 µM) of 91%, a residual activity ([15]; compound 1.0 µM) of 90% and a residual activity ([15]; compound 10.0 µM) of 81%. The residual activity ([16]; compound 0.1 µM) was 119%, the residual activity ([16]; compound 1.0 µM) was 100% and the residual activity ([16]; compound 10.0 µM) was 91%. It also gave a residual activity ([17]; compound 0.1 µM) of 88%, a residual activity ([17]; compound 1.0 µM) of 90% and a residual activity ([17]; compound 10.0 µM) of 91%. The residual activity ([18]; compound 0.1 µM) was 100%, the residual activity ([18]; compound 1.0 µM) was 84% and the residual activity ([18]; compound 10.0 µM) was 75%. The residual activity ([19]; compound 0.1 µM) was 101%, the residual activity ([19]; compound 1.0 µM) was 96% and the residual activity ([19]; compound 10.0 µM) was 75%. For the same compound, the residual activity ([20]; compound 0.1 µM) was 101%, the residual activity ([20]; compound 1.0 µM) was 84% and the residual activity ([20]; compound 10.0 µM) was 38%. The residual activity ([21]; compound 0.1 µM) was 95%, the residual activity ([21]; compound 1.0 µM) was 87% and the residual activity ([21]; compound 10.0 µM) was 87%. The residual activity ([22]; compound 0.1 µM) was 104%, the residual activity ([22]; compound 1.0 µM) was 91% and the residual activity ([22]; compound 10.0 µM) was 90%. For the same compound, the residual activity ([23]; compound 0.1 µM) was 101%, the residual activity ([23]; compound 1.0 µM) was 87% and the residual activity ([23]; compound 10.0 µM) was 62%. For the same compound, the residual activity ([24]; compound 0.1 µM) was 90%, the residual activity ([24]; compound 1.0 µM) was 100% and the residual activity ([24]; compound 10.0 µM) was 92%. It also gave a residual activity ([25]; compound 0.1 µM) of 110%, a residual activity ([25]; compound 1.0 µM) of 97% and a residual activity ([25]; compound 10.0 µM) of 101%. It also gave a residual activity ([26]; compound 0.1 µM) of 88%, a residual activity ([26]; compound 1.0 µM) of 81% and a residual activity ([26]; compound 10.0 µM) of 53%. It also gave a residual activity ([27]; compound 1.0 µM) of 105%, a residual activity ([27]; compound 10.0 µM) of 94% and a residual activity ([28]; compound 0.1 µM) of 108%. It also gave a residual activity ([28]; compound 1.0 µM) of 87%, a residual activity ([28]; compound 10.0 µM) of 93% and a residual activity ([29]; compound 0.1 µM) of 101%. For the same compound, the residual activity ([29]; compound 1.0 µM) was 89%, the residual activity ([29]; compound 10.0 µM) was 105% and the residual activity ([30]; compound 0.1 µM) was 116%. For the same compound, the residual activity ([30]; compound 1.0 µM) was 100%, the residual activity ([30]; compound 10.0 µM) was 96% and the residual activity ([31]; compound 0.1 µM) was 86%. It also gave a residual activity ([31]; compound 1.0 µM) of 105%, a residual activity ([31]; compound 10.0 µM) of 97% and a residual activity ([32]; compound 0.1 µM) of 101%. For the same compound, the residual activity ([32]; compound 1.0 µM) was 105%, the residual activity ([32]; compound 10.0 µM) was 86% and the residual activity ([33]; compound 0.1 µM) was 69%. For the same compound, the residual activity ([33]; compound 1.0 µM) was 86%, the residual activity ([33]; compound 10.0 µM) was 68% and the residual activity ([34]; compound 0.1 µM) was 96%. It also gave a residual activity ([34]; compound 1.0 µM) of 109%, a residual activity ([34]; compound 10.0 µM) of 100% and a residual activity ([35]; compound 0.1 µM) of 98%. The residual activity ([35]; compound 1.0 µM) was 85% and the residual activity ([35]; compound 10.0 µM) was 83%.
